Remaining activity data for 29 compounds are collected here from paper PMC8286840, “Identifying SARS-CoV-2 antiviral compounds by screening for small molecule inhibitors of Nsp3 papain-like protease” (Biochemical Journal, 2021).

Assay [1] has as its target T1, SARS-CoV-2 PLpro (nsp3 1564–1878) (Severe acute respiratory syndrome coronavirus 2, UniProt P0DTD1). Kind of assay: biochemical. Also on record: FRET-quenched peptide (Pro3) cleavage by PLpro, 10 min pre-incubation, slope over 20 min, normalised to no-compound control. The settings on record: high concentration screen, read-out: % of control remaining.
The target of assay [2] is T1, SARS-CoV-2 PLpro (nsp3 1564–1878). Kind of assay: biochemical. Also on record: FRET-quenched peptide (Pro3) cleavage by PLpro, 10 min pre-incubation, slope over 20 min, normalised to no-compound control. The settings on record: low concentration screen, read-out: % of control remaining.

Molecules are shown by their SMILES. Where a name gives a salt, the structure may show the parent alone. Read-outs that look alike come from different tables or passages of the source.

In the case of `COc1cc2c(cc1OC)-c1c/c(=N\c3c(C)cc(C)cc3C)n(C)c(=O)n1CC2` [Trequinsin hydrochloride], the remaining activity at 3.75 µM in assay [1] (Well no.=1379) turned out to be 97.1%. Besides, the remaining activity at 1.25 µM in assay [2] (Well no.=1379) is 98.6%.
`CCCN(CCC)CCc1c[nH]c2ccc(C(N)=O)cc12` [N,N-Dipropyl-5-carboxamidotryptamine maleate]: the remaining activity at 3.75 µM in assay [1] (Well no.=402) was 97.1%. The remaining activity at 1.25 µM in assay [2] (Well no.=402) was 95.4%.
As for `N=C1S/C(=C\c2ccc(-c3ccc4c(c3)C(=O)NC4=O)o2)C(=O)N1c1ccc(Br)cc1` [Bioymifi], the remaining activity at 3.75 µM in assay [1] (Well no.=6390) is 98%. In assay [2] (Well no.=6390), the remaining activity at 1.25 µM was 96.5%.
As for `Cn1c(=O)c2[nH]c(=O)[nH]c2n(C)c1=O` [1,3-Dimethyluric acid], the remaining activity at 3.75 µM in assay [1] (Well no.=6819) is 95.7%. The remaining activity at 1.25 µM in assay [2] (Well no.=6819) worked out at 99.4%.
For `C[C@H](O)[C@H](O)c1cnc2nc(N)[nH]c(=O)c2n1` [6-Biopterin], in assay [1] (Well no.=6447), the remaining activity at 3.75 µM stood at 95.8%. Also, the remaining activity at 1.25 µM in assay [2] (Well no.=6447) came out at 99.6%.
As for `CC[N+](C)(C)Cc1ccccc1Br` [Bretylium tosylate], the remaining activity at 3.75 µM in assay [1] (Well no.=321) amounted to 101%. Further, the remaining activity at 1.25 µM in assay [2] (Well no.=321) came to 103%.
On to `CNCC(=O)O` [Sarcosine], for which the remaining activity at 3.75 µM in assay [1] (Well no.=6727) turned out to be 102%. Moreover, the remaining activity at 1.25 µM in assay [2] (Well no.=6727) turned out to be 103%.
`NC(=NCCC[C@H](N)C(=O)O)NO` [NG-Hydroxy-L-arginine acetate]: the remaining activity at 3.75 µM in assay [1] (Well no.=660) was 96.5%. Moreover, the remaining activity at 1.25 µM in assay [2] (Well no.=660) was 96.5%.
As to `CNC(=O)[C@H]1O[C@@H](n2cnc3c(NCc4cccc(I)c4)nc(Cl)nc32)[C@H](O)[C@@H]1O` [2-Cl-IB-MECA], the remaining activity at 3.75 µM in assay [1] (Well no.=6316) was found to be 90.2%. Moreover, the remaining activity at 1.25 µM in assay [2] (Well no.=6316) came to 95%.
Take `O=C(O)[C@@H]1C[C@@H](C(=O)O)N1` (relative stereo) [trans-Azetidine-2,4-dicarboxylic acid]: the remaining activity at 3.75 µM in assay [1] (Well no.=68) was 103%. In addition, the remaining activity at 1.25 µM in assay [2] (Well no.=68) stood at 104%.
For the compound `OC[C@@H](O)[C@H]1NC[C@@H](O)[C@H]1O` [1,4-Dideoxy-1,4-imino-D-mannitol hydrochloride], the remaining activity at 3.75 µM in assay [1] (Well no.=536) was determined as 99.2%. In addition, the remaining activity at 1.25 µM in assay [2] (Well no.=536) came out at 101%.
In the case of `CC(C)Cc1ccc(C(C)C(=O)O)cc1` (centres unmarked) [Ibuprofen], the remaining activity at 3.75 µM in assay [1] (Well no.=1901) turned out to be 97%. In assay [2] (Well no.=1901), the remaining activity at 1.25 µM worked out at 95.1%.
For the compound `O=C1/C(=C/c2ccc(O)c(Br)c2)CN(Cc2ccccc2)C/C1=C\c1ccc(O)c(Br)c1` [CARM1-IN-1], the remaining activity at 3.75 µM in assay [1] (Well no.=8030) was determined as 88%. For the same compound, in assay [2] (Well no.=8030), the remaining activity at 1.25 µM is 94.4%.
With `Cc1cc2c(cc1Cl)N(C(=O)Nc1ccc(Oc3cccnc3C)nc1)CC2` [SB 242084 dihydrochloride], the remaining activity at 3.75 µM in assay [1] (Well no.=1222) came to 102%. The remaining activity at 1.25 µM in assay [2] (Well no.=1222) was found to be 102%.
In the case of `CC(C)NCC(O)c1ccc(O)c(O)c1` (centres unmarked) [Isoprenaline (hydrochloride)], the remaining activity at 3.75 µM in assay [1] (Well no.=6761) worked out at 101%. For the same compound, in assay [2] (Well no.=6761), the remaining activity at 1.25 µM is 99.4%.
For the compound `Oc1ccc([C@H]2COc3cc(O)ccc3C2)cc1` [(-)-(S)-Equol], the remaining activity at 3.75 µM in assay [1] (Well no.=7405) stood at 107%. Further, the remaining activity at 1.25 µM in assay [2] (Well no.=7405) came out at 110%.
Turning to `Nc1nc2[nH]cc(CCc3ccc(C(=O)N[C@@H](CCC(=O)O)C(=O)O)cc3)c2c(=O)[nH]1` [Pemetrexed Disodium Hydrate], the remaining activity at 3.75 µM in assay [1] (Well no.=8732) was found to be 97.8%. The remaining activity at 1.25 µM in assay [2] (Well no.=8732) is 96.6%.
Take `COc1cc(C=C(C#N)C#N)cc(O)c1O` [Tyrphostin AG 34]: the remaining activity at 3.75 µM in assay [1] (Well no.=1387) came out at 101%. Also, in assay [2] (Well no.=1387), the remaining activity at 1.25 µM is 102%.
For `COc1ccc2c3c4n(c2c1)[C@H](C=C(C)C)OOC(C)(C)C[C@@H]4N1C(=O)[C@@H]2CCCN2C(=O)[C@]1(O)[C@H]3O` [Verruculogen], the remaining activity at 3.75 µM in assay [1] (Well no.=3556) came to 102%. Also, the remaining activity at 1.25 µM in assay [2] (Well no.=3556) was 98.3%.
In the case of `COC(=O)Nc1nc2cc(C(=O)c3cccs3)ccc2[nH]1` [Nocodazole], the remaining activity at 3.75 µM worked out at 101% in assay [1] (Well no.=824) and 94.1% in assay [1] (Well no.=6258). Further, the remaining activity at 1.25 µM in assay [2] (Well no.=824) was 99.3%; in assay [2] (Well no.=6258), 96.5%.
For `CC1=C(/C=C/C(C)=C/C=C/C(C)=C\C(=O)O)C(C)(C)CCC1` [13-cis Retinoic acid], the remaining activity at 3.75 µM in assay [1] (Well no.=3134) turned out to be 98.9%; in assay [1] (Well no.=4430), 96%. Besides, the remaining activity at 1.25 µM in assay [2] (Well no.=3134) was found to be 98.4%; in assay [2] (Well no.=4430), 95.1%.
Take `CC/C=C\C/C=C\C/C=C\CCCCCCCC(=O)O` [Linolenic acid]: the values for the remaining activity at 3.75 µM in assay [1] (Well no.=4305) and in assay [1] (Well no.=4358) were 102% and 100%, respectively. In addition, the remaining activity at 1.25 µM is 103% in assay [2] (Well no.=4305) and 101% in assay [2] (Well no.=4358).
Turning to `CCCSc1ccc2[nH]c(NC(=O)OC)nc2c1` [Albendazole], the remaining activity at 3.75 µM in assay [1] (Well no.=2083) was 105%. Moreover, the remaining activity at 1.25 µM in assay [2] (Well no.=2083) turned out to be 103%.
As for `O=c1c(-n2ccnn2)c[nH]n1-c1cc(N2CCOCC2)ncn1` [Molidustat (BAY 85-3934)], in assay [1] (Well no.=8542), the remaining activity at 3.75 µM came to 111%. For the same compound, in assay [2] (Well no.=8542), the remaining activity at 1.25 µM is 101%.
For the compound `NCCS(=O)O` [Hypotaurine], the remaining activity at 3.75 µM in assay [1] (Well no.=464) is 102%; in assay [1] (Well no.=7779) it was 103%. In addition, the remaining activity at 1.25 µM was 102% in assay [2] (Well no.=464) and 106% in assay [2] (Well no.=7779).
In the case of `Nc1nc2[nH]cc(CCc3ccc(C(=O)N[C@@H](CCC(=O)O)C(=O)O)cc3)c2c(=O)[nH]1` [Pemetrexed (Alimta)], in assay [1] (Well no.=4677), the remaining activity at 3.75 µM was 98.7%. The remaining activity at 1.25 µM in assay [2] (Well no.=4677) was 98.1%.
With `CCN(CC)CCNC(=O)c1ccc(N)cc1` [Procainamide hydrochloride], the remaining activity at 3.75 µM in assay [1] (Well no.=1307) amounted to 98.9%. In assay [2] (Well no.=1307), the remaining activity at 1.25 µM amounted to 96.8%.
As for `C/C(=N\NC(=O)C(NC(=O)c1ccccc1)c1n[nH]c(=O)c2ccccc12)c1cccc(Br)c1` (centres unmarked) [AC-55541], the remaining activity at 3.75 µM in assay [1] (Well no.=6997) came to 106%. The remaining activity at 1.25 µM in assay [2] (Well no.=6997) was 106%.
In the case of `Nc1ccc(S(=O)(=O)Nc2ncccn2)cc1` [Sulfadiazine], the remaining activity at 3.75 µM in assay [1] (Well no.=2289) was 102%; in assay [1] (Well no.=7494), 98.3%. The remaining activity at 1.25 µM is 99.4% in assay [2] (Well no.=2289) and 97.4% in assay [2] (Well no.=7494).
